# Publication PMC10178848, “Modulating fast skeletal muscle contraction protects skeletal muscle in animal models of Duchenne muscular dystrophy” (The Journal of Clinical Investigation, 2023)
# Like-named read-outs stand apart in the source and are kept apart here.
# Legend:
# CSF1R = molecular target: T1, CSF1R (Homo sapiens, UniProt P07333); experiment: KINOMEscan scanEDGE; format: binding; conditions: 20 uM
# T1 construct: purchased Eurofins DiscoverX (KINOMEscan; SAFETYscan E/IC50 ELECT)
# PDGFRA = molecular target: T2, PDGFRA (Homo sapiens, UniProt P16234); experiment: KINOMEscan scanEDGE; format: binding; conditions: 20 uM
# T2 construct: purchased Eurofins DiscoverX (KINOMEscan; SAFETYscan E/IC50 ELECT)
# ERBB4 = molecular target: T3, ERBB4 (Homo sapiens, UniProt Q15303); experiment: KINOMEscan scanEDGE; format: binding; conditions: 20 uM
# T3 construct: purchased Eurofins DiscoverX (KINOMEscan; SAFETYscan E/IC50 ELECT)
# mdx mice = experiment: Plasma CK activity in mice; format: in vivo, mouse
# Protocol: Plasma from mice and dogs were analyzed for CK activity using standard protocols (Pointe Scientific, Thermo Fisher Scientific).
# LKB1 = molecular target: T4, LKB1 (Homo sapiens, UniProt Q15831); experiment: KINOMEscan scanEDGE; format: binding; conditions: 20 uM
# T4 construct: purchased Eurofins DiscoverX (KINOMEscan; SAFETYscan E/IC50 ELECT)
# BRAF(V600E) = molecular target: T5, BRAF(V600E) (Homo sapiens, UniProt P15056, V600E); experiment: KINOMEscan scanEDGE; format: binding; conditions: 20 uM
# T5 construct: purchased Eurofins DiscoverX (KINOMEscan; SAFETYscan E/IC50 ELECT)
# HTR2B = molecular target: T6, HTR2B (Homo sapiens, UniProt P41595); experiment: SAFETYscan Calcium Flux; format: cell-based; parameters: dose or concentration left out as unconfirmed
# T6 construct: purchased Eurofins DiscoverX (KINOMEscan; SAFETYscan E/IC50 ELECT)
# Protocol: (§1) The specificity of EDG-5506 for fast skeletal myosin over other, unrelated proteins was confirmed using two off-target binding and activity screens. […] A second off-target panel (SAFETYscan E/IC50 ELECT, Eurofins DiscoverX) tested in vitro enzyme activity against 78 proteins, including GPCR, ion channel, kinases, nuclear hormone receptors, and transporters. In all assays, the IC50 of EDG-5506 was more than 10 μM (Supplemental Data File 1).
# ADORA2A = molecular target: T7, ADORA2A (Homo sapiens, UniProt P29274); experiment: SAFETYscan Calcium Flux; format: cell-based; parameters: dose or concentration left out as unconfirmed
# T7 construct: purchased Eurofins DiscoverX (KINOMEscan; SAFETYscan E/IC50 ELECT)
# Protocol: as §1
# HRH1 = molecular target: T8, HRH1 (Homo sapiens, UniProt P35367); experiment: SAFETYscan Calcium Flux; format: cell-based; parameters: dose or concentration left out as unconfirmed
# T8 construct: purchased Eurofins DiscoverX (KINOMEscan; SAFETYscan E/IC50 ELECT)
# Protocol: as §1
# ADRA1A = molecular target: T9, ADRA1A (Homo sapiens, UniProt P35348); experiment: SAFETYscan Calcium Flux; format: cell-based; parameters: dose or concentration left out as unconfirmed
# T9 construct: purchased Eurofins DiscoverX (KINOMEscan; SAFETYscan E/IC50 ELECT)
# T9 sequence (P35348 whole entry): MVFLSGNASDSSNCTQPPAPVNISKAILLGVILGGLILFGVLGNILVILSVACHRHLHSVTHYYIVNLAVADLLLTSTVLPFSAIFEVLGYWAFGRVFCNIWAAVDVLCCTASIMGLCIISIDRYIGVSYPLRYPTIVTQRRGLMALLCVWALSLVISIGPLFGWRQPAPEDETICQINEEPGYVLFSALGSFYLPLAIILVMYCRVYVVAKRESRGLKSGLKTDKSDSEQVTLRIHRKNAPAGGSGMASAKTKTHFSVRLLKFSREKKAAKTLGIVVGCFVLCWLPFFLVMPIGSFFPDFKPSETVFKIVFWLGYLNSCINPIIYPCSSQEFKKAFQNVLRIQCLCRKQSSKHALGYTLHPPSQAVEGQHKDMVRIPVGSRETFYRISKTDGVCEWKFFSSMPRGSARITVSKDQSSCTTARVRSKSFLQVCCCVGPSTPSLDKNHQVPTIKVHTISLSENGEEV
# Protocol: as §1
# HTR2A = molecular target: T10, HTR2A (Homo sapiens, UniProt P28223); experiment: SAFETYscan Calcium Flux; format: cell-based; parameters: dose or concentration left out as unconfirmed
# T10 construct: purchased Eurofins DiscoverX (KINOMEscan; SAFETYscan E/IC50 ELECT)
# T10 sequence (P28223 whole entry): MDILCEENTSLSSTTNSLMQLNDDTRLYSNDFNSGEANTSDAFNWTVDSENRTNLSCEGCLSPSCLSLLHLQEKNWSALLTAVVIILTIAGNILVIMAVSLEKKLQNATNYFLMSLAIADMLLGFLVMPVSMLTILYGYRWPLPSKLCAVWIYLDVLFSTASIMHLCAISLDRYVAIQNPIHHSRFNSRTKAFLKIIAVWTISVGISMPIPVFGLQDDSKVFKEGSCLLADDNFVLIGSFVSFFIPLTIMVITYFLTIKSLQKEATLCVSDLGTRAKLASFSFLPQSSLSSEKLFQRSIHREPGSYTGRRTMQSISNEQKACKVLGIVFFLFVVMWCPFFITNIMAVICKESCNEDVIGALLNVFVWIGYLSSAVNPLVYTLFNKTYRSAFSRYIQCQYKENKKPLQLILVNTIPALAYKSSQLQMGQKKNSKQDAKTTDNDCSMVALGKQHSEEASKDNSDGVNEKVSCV
# Protocol: as §1
# AVPR1A = molecular target: T11, AVPR1A (Homo sapiens, UniProt P37288); experiment: SAFETYscan Calcium Flux; format: cell-based; parameters: dose or concentration left out as unconfirmed
# T11 construct: purchased Eurofins DiscoverX (KINOMEscan; SAFETYscan E/IC50 ELECT)
# T11 sequence (P37288 whole entry): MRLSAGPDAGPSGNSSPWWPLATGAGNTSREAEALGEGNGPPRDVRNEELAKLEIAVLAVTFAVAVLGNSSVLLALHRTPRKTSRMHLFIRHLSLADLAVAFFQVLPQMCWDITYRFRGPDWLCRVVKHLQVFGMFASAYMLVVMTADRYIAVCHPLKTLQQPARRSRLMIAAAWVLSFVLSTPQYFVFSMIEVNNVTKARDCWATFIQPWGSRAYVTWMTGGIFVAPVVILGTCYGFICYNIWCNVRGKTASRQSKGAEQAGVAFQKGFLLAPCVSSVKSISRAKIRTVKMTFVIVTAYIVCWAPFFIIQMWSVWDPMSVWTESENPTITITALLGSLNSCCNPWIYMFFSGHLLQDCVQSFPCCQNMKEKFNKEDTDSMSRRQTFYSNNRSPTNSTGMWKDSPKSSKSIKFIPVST
# Protocol: as §1
# CHRM3 = molecular target: T12, CHRM3 (Homo sapiens, UniProt P20309); experiment: SAFETYscan Calcium Flux; format: cell-based; parameters: dose or concentration left out as unconfirmed
# T12 construct: purchased Eurofins DiscoverX (KINOMEscan; SAFETYscan E/IC50 ELECT)
# T12 sequence (P20309 whole entry): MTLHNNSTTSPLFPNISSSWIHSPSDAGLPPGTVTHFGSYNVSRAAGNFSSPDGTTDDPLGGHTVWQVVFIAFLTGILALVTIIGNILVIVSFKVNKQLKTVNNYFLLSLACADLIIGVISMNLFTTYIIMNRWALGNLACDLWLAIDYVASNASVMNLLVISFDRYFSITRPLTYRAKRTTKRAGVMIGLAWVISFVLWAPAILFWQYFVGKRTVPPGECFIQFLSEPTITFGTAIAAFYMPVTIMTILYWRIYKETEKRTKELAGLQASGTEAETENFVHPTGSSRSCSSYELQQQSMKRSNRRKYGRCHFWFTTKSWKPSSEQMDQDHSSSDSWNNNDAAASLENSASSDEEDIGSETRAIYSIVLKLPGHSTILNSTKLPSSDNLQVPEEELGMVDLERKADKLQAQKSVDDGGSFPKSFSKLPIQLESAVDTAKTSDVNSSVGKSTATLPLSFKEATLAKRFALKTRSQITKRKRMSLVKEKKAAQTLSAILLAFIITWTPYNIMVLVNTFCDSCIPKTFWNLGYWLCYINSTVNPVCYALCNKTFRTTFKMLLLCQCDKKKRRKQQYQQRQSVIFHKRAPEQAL
# Protocol: as §1
# EDNRA = molecular target: T13, EDNRA (Homo sapiens, UniProt P25101); experiment: SAFETYscan Calcium Flux; format: cell-based; parameters: dose or concentration left out as unconfirmed
# T13 construct: purchased Eurofins DiscoverX (KINOMEscan; SAFETYscan E/IC50 ELECT)
# Protocol: as §1
# CHRM1 = molecular target: T14, CHRM1 (Homo sapiens, UniProt P11229); experiment: SAFETYscan Calcium Flux; format: cell-based; parameters: dose or concentration left out as unconfirmed
# T14 construct: purchased Eurofins DiscoverX (KINOMEscan; SAFETYscan E/IC50 ELECT)
# T14 sequence (P11229 whole entry): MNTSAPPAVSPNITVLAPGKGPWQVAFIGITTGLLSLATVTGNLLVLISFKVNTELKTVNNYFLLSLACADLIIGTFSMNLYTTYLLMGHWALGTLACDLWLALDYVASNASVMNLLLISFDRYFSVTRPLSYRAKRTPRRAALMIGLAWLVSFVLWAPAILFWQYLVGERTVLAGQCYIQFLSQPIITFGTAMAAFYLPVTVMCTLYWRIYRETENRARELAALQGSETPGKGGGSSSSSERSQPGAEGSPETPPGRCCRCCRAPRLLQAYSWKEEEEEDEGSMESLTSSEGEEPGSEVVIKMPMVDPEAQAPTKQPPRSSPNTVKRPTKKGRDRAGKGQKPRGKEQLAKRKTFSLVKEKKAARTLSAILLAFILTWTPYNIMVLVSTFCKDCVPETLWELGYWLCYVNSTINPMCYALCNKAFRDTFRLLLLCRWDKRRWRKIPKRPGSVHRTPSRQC
# Protocol: as §1
# HTR1B = molecular target: T15, HTR1B (Homo sapiens, UniProt P28222); experiment: SAFETYscan cAMP; format: cell-based; parameters: dose or concentration left out as unconfirmed
# T15 construct: purchased Eurofins DiscoverX (KINOMEscan; SAFETYscan E/IC50 ELECT)
# T15 sequence (P28222 whole entry): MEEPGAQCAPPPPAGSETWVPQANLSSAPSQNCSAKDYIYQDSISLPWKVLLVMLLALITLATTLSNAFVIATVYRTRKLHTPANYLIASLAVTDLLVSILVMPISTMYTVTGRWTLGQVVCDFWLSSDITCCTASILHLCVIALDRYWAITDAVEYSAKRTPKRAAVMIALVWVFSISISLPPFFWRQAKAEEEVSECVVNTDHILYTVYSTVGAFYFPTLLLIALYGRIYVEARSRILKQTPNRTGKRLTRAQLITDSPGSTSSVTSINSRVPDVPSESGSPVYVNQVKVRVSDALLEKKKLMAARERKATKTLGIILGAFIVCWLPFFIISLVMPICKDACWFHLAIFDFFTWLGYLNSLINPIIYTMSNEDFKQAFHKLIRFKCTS
# Protocol: as §1
# CNR1 = molecular target: T16, CNR1 (Homo sapiens, UniProt P21554); experiment: SAFETYscan cAMP; format: cell-based; parameters: dose or concentration left out as unconfirmed
# T16 construct: purchased Eurofins DiscoverX (KINOMEscan; SAFETYscan E/IC50 ELECT)
# Protocol: as §1
# CHRM2 = molecular target: T17, CHRM2 (Homo sapiens, UniProt P08172); experiment: SAFETYscan cAMP; format: cell-based; parameters: dose or concentration left out as unconfirmed
# T17 construct: purchased Eurofins DiscoverX (KINOMEscan; SAFETYscan E/IC50 ELECT)
# Protocol: as §1
# HTR1A = molecular target: T18, HTR1A (Homo sapiens, UniProt P08908); experiment: SAFETYscan cAMP; format: cell-based; parameters: dose or concentration left out as unconfirmed
# T18 construct: purchased Eurofins DiscoverX (KINOMEscan; SAFETYscan E/IC50 ELECT)
# T18 sequence (P08908 whole entry): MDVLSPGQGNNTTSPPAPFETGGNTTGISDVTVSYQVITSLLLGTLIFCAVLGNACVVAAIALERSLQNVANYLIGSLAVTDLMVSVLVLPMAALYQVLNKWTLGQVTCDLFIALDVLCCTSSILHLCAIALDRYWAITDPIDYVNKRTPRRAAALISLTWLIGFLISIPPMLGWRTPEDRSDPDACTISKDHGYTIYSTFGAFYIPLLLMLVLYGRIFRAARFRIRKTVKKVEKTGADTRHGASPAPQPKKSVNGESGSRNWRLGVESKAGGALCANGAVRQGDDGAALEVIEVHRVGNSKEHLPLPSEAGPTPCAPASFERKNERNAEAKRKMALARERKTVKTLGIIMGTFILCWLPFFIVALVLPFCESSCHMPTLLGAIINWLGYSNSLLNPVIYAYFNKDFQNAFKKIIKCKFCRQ
# Protocol: as §1
# DRD2S = molecular target: T19, DRD2S (Homo sapiens, UniProt P14416); experiment: SAFETYscan cAMP; format: cell-based; parameters: dose or concentration left out as unconfirmed
# T19 construct: purchased Eurofins DiscoverX (KINOMEscan; SAFETYscan E/IC50 ELECT)
# T19 sequence (P14416 1-414 isoform P14416-2): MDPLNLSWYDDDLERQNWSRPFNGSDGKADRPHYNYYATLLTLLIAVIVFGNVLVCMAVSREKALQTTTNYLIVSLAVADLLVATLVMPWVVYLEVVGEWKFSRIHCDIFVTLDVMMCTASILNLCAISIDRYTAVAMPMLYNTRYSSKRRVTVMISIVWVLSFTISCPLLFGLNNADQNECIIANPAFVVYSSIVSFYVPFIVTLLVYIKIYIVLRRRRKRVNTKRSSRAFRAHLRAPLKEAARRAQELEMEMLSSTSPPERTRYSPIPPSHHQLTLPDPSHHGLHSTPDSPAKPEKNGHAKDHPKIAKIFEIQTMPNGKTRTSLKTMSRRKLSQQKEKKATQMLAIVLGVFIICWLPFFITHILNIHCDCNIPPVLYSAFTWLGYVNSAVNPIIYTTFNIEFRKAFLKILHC
# Protocol: as §1
# OPRK1 = molecular target: T20, OPRK1 (Homo sapiens, UniProt P41145); experiment: SAFETYscan cAMP; format: cell-based; parameters: dose or concentration left out as unconfirmed
# T20 construct: purchased Eurofins DiscoverX (KINOMEscan; SAFETYscan E/IC50 ELECT)
# Protocol: as §1
# DRD1 = molecular target: T21, DRD1 (Homo sapiens, UniProt P21728); experiment: SAFETYscan cAMP; format: cell-based; parameters: dose or concentration left out as unconfirmed
# T21 construct: purchased Eurofins DiscoverX (KINOMEscan; SAFETYscan E/IC50 ELECT)
# T21 sequence (P21728 whole entry): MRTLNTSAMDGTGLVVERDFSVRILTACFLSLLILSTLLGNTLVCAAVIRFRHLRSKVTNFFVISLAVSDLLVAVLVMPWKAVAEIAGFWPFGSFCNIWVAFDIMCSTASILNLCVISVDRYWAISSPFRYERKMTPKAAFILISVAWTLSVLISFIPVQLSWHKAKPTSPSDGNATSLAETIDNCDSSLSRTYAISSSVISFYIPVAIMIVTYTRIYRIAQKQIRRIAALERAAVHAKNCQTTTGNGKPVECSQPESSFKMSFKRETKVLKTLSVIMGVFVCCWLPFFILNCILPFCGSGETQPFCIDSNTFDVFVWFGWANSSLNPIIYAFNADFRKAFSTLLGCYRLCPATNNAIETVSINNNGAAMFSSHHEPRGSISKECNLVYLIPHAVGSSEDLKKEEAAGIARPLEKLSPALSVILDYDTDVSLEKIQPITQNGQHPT
# Protocol: as §1
# HRH2 = molecular target: T22, HRH2 (Homo sapiens, UniProt P25021); experiment: SAFETYscan cAMP; format: cell-based; parameters: dose or concentration left out as unconfirmed
# T22 construct: purchased Eurofins DiscoverX (KINOMEscan; SAFETYscan E/IC50 ELECT)
# T22 sequence (P25021 whole entry): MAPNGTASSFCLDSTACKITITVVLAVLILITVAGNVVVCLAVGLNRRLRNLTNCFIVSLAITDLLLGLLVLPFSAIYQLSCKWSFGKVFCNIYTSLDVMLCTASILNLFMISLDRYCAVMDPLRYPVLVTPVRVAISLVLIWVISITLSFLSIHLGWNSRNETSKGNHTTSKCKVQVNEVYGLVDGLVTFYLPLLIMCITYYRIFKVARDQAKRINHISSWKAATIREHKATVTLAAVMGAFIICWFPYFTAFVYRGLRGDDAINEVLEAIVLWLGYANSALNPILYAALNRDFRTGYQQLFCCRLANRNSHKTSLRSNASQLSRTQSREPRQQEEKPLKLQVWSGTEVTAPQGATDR
# Protocol: as §1
# ADRB2 = molecular target: T23, ADRB2 (Homo sapiens, UniProt P07550); experiment: SAFETYscan cAMP; format: cell-based; parameters: dose or concentration left out as unconfirmed
# T23 construct: purchased Eurofins DiscoverX (KINOMEscan; SAFETYscan E/IC50 ELECT)
# T23 sequence (P07550 whole entry): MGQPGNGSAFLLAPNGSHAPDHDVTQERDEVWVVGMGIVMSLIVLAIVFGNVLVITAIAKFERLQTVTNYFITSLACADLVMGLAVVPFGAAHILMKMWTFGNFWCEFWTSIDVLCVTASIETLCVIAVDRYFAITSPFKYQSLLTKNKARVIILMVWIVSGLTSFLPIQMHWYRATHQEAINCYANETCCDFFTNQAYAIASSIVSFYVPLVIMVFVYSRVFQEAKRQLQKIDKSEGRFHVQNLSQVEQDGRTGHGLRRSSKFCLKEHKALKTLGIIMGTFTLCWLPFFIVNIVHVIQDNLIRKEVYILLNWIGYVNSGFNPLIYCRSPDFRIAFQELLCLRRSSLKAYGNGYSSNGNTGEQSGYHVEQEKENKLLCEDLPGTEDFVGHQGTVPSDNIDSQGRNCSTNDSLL
# Protocol: as §1
# OPRM1 = molecular target: T24, OPRM1 (Homo sapiens, UniProt P35372); experiment: SAFETYscan cAMP; format: cell-based; parameters: dose or concentration left out as unconfirmed
# T24 construct: purchased Eurofins DiscoverX (KINOMEscan; SAFETYscan E/IC50 ELECT)
# Protocol: as §1
# OPRD1 = molecular target: T25, OPRD1 (Homo sapiens, UniProt P41143); experiment: SAFETYscan cAMP; format: cell-based; parameters: dose or concentration left out as unconfirmed
# T25 construct: purchased Eurofins DiscoverX (KINOMEscan; SAFETYscan E/IC50 ELECT)
# Protocol: as §1
# ADRB1 = molecular target: T26, ADRB1 (Homo sapiens, UniProt P08588); experiment: SAFETYscan cAMP; format: cell-based; parameters: dose or concentration left out as unconfirmed
# T26 construct: purchased Eurofins DiscoverX (KINOMEscan; SAFETYscan E/IC50 ELECT)
# Protocol: as §1
# CNR2 = molecular target: T27, CNR2 (Homo sapiens, UniProt P34972); experiment: SAFETYscan cAMP; format: cell-based; parameters: dose or concentration left out as unconfirmed
# T27 construct: purchased Eurofins DiscoverX (KINOMEscan; SAFETYscan E/IC50 ELECT)
# Protocol: as §1
# ADRA2A = molecular target: T28, ADRA2A (Homo sapiens, UniProt P08913); experiment: SAFETYscan cAMP; format: cell-based; parameters: dose or concentration left out as unconfirmed
# T28 construct: purchased Eurofins DiscoverX (KINOMEscan; SAFETYscan E/IC50 ELECT)
# Protocol: as §1
# [1] = read-out: Max Response (%) (Agonist)
# [2] = read-out: Max Response (%) (Antagonist)
smiles,measurement,setting,value
O=c1ccc(-c2cnc(OCC(F)(F)F)nc2)nn1Cc1cncc(F)c1 [EDG-5506],"binding, % of control",CSF1R,100 % of control
same,"binding, % of control",PDGFRA,100 % of control
same,"binding, % of control",ERBB4,93 % of control
same,plasma CK activity after in situ injury,mdx mice; 1 hour after in situ injury,lowered plasma CK activity
same,postexercise plasma CK,mdx mice; 1 hour after rotarod or grip strength tests,significantly lower
same,"binding, % of control",LKB1,86 % of control
same,"binding, % of control",BRAF(V600E),93 % of control
same,Emax,HTR2B; [1],5.88%
same,Emax,HTR2B; [2],2.49%
same,Emax,ADORA2A; [1],0%
same,Emax,ADORA2A; [2],0%
same,Emax,HRH1; [1],0%
same,Emax,HRH1; [2],25.2%
same,Emax,ADRA1A; [1],2.19%
same,Emax,ADRA1A; [2],18.5%
same,Emax,HTR2A; [1],3.31%
same,Emax,HTR2A; [2],0.4%
same,Emax,AVPR1A; [1],0%
same,Emax,AVPR1A; [2],0%
same,Emax,CHRM3; [1],2.48%
same,Emax,CHRM3; [2],2.14%
same,Emax,EDNRA; [1],0%
same,Emax,EDNRA; [2],0%
same,Emax,CHRM1; [1],0.16%
same,Emax,CHRM1; [2],0%
same,Emax,HTR1B; [1],0%
same,Emax,HTR1B; [2],4.17%
same,Emax,CNR1; [1],14.8%
same,Emax,CNR1; [2],3.38%
same,Emax,CHRM2; [1],21.5%
same,Emax,CHRM2; [2],0%
same,Emax,HTR1A; [1],0%
same,Emax,HTR1A; [2],1.51%
same,Emax,DRD2S; [1],7.3%
same,Emax,DRD2S; [2],1.39%
same,Emax,OPRK1; [1],9.76%
same,Emax,OPRK1; [2],0.05%
same,Emax,DRD1; [1],3.04%
same,Emax,DRD1; [2],14.3%
same,Emax,HRH2; [1],0%
same,Emax,HRH2; [2],15%
same,Emax,ADRB2; [1],0.97%
same,Emax,ADRB2; [2],20.8%
same,Emax,OPRM1; [1],17.4%
same,Emax,OPRM1; [2],0.2%
same,Emax,OPRD1; [1],7.61%
same,Emax,OPRD1; [2],9.41%
same,Emax,ADRB1; [1],2.02%
same,Emax,ADRB1; [2],9.68%
same,Emax,CNR2; [1],27.5%
same,Emax,CNR2; [2],0%
same,Emax,ADRA2A; [1],19.2%
same,Emax,ADRA2A; [2],0.88%
